Results on 1 compound are retold here after patent publication US8481708B2, “snRNA gene-like transcriptional units and uses thereof” (Università degli Studi di Genova, priority 2005, dated 2013).

In the experiment the test system is RNA Polymerase III. Description: Promoter activity transfection assay with Pol III inhibitor ML-60218. It counts as cell-based, human. The note with it: after 24 hours of cell treatment with ML-60218 (20 μM); hairpin constructs with novel promoters. How it is done: For transient transfections Hela cells (grown in DMEM supplemented with 10% FCS), were grown in multiwell Petri dishes 16 hours before transfection. The expression [21A, 21A(1), 21A(2), 21A(3)] constructs containing the regions of interest cloned in the pTopo vectors (Invitrogen) were introduced into the cells using the Fugene 6 transfection reagent (Roche) according to the manufacturer's instructions. A plasmid Expressing Luciferase was used as control of transfection efficiency (to which all the results were normalized). 24, 48 and 72 hours after transfection cells were harvested and firely luciferase activity was measured by Dual-Luciferase reporter assay system (Promega). manufacturer's protocol.

As to `Cc1c(-c2cc(NS(=O)(=O)c3ccccc3Cl)n(C)n2)sc2ccc(Cl)cc12` [ML-60218], the luciferase signal result is “increased”.
